Data on 5 molecules can be found in ChEMBL document CHEMBL1147220, “Divinatorins A-C, new neoclerodane diterpenoids from the controlled sage Salvia divinorum” (2003).

In brackets after ≈: the same amount, converted by molar mass. Activity calls are given as the source filed them.

The term MIC denotes the smallest concentration in the dilution series that meets the test's criterion for growth inhibition. Higher therefore signals weaker potency.

Assay [1] concerns Bacillus subtilis. Description: Antibacterial activity against Bacillus subtilis ATCC 6633 by microdilution method. The assay is classed as functional.
Assay [2] deals with Bacillus subtilis. Briefly: Antibacterial activity against Bacillus subtilis ATCC 6633 at 100 ug/disk by disk diffusion method. The assay is classed as functional.
In assay [3] the test system is Staphylococcus aureus. Briefly: Antibacterial activity against Staphylococcus aureus ATCC 29213 by microdilution method. Type of assay: functional. A general note: Dilution methods test growth across graded concentrations, often in twofold steps.
Assay [4] relates to Escherichia coli. Description: Antibacterial activity against Escherichia coli ATCC 25922 at 100 ug/mL by microdilution method. Type of assay: functional, organism-based.
In assay [5] the test system is Staphylococcus aureus. Briefly: Antibacterial activity against Staphylococcus aureus ATCC 29213 at 100 ug/mL by microdilution method. The assay is classed as functional, organism-based.
The subject of assay [6] is Candida albicans. Briefly: Antifungal activity against Candida albicans ATCC 90028 at 100 ug/mL by microdilution method. Type of assay: functional, organism-based.
The test system of assay [7] is Escherichia coli. Description: Antibacterial activity against Escherichia coli ATCC 25922 at 100 ug/disk by disk diffusion method. The assay is classed as functional, organism-based. (In general: A growth-free zone around the sample is the usual read-out of agar diffusion tests.)
Assay [8] concerns Staphylococcus aureus. Briefly: Antibacterial activity against Staphylococcus aureus ATCC 29213 at 100 ug/disk by disk diffusion method. The assay is classed as functional, organism-based.
For assay [9], the system named is Candida albicans. Description: Antifungal activity against Candida albicans ATCC 90028 at 100 ug/disk by disk diffusion method. Type of assay: functional, organism-based.
The test system of assay [10] is Bacillus subtilis. Description: Antibacterial activity against Bacillus subtilis ATCC 6633 at 100 ug/mL by microdilution method. Type of assay: functional, organism-based.

`C[C@@H]1CC[C@@]2(C)C(C(=O)O)=CCC[C@@H]2[C@@]1(C)CCc1ccoc1` came in with an MIC in [1] of 0.78 µg/mL (≈ 2.46 µM).
As to `C[C@H]1CC[C@]2(C)C(C(=O)O)=CCC[C@H]2[C@]1(C)CCc1ccoc1`, the zone of inhibition at 100 µg/disc in assay [2] (read-out: IZ) is 10 mm. Also, the minimal inhibitory concentration (MIC) in assay [3] was 25 µg/mL (≈ 79 µM); in assay [1], 12.5 µg/mL (≈ 39.5 µM).
In the case of `COC(=O)C1=CC[C@H](O)[C@@H]2[C@@](C)(CCc3ccoc3)[C@H](CO)CC[C@@]12C`, the outcome in assay [4], in [5], in assay [6], in [7], in assay [8] and in assay [2] was inactive. In addition, the outcome in [9] and in assay [10] was inactive.
As to `C[C@@H]1CC[C@@]2(C)C(C(=O)O)=CC[C@H](O)[C@@H]2[C@@]1(C)CCc1ccoc1`, the result in [4], in [5], in [6], in assay [7], in assay [8] and in assay [2] was inactive. Further, the result in assay [9] and in [10] was inactive.
`CC(=O)OC[C@@H]1CC[C@@]2(C)C(C(=O)O)=CCC[C@@H]2[C@@]1(C)CCc1ccoc1`: the outcome in assay [4], in assay [5], in assay [6], in [7], in assay [8] and in assay [2] was inactive. Further, the outcome in [9] and in assay [10] was inactive.
